The target of test [1] is T1, human S1P4 (Homo sapiens, UniProt O95977).
T1 construct: host or cells: recombinant CHEM cells
T1 sequence (O95977 1-384): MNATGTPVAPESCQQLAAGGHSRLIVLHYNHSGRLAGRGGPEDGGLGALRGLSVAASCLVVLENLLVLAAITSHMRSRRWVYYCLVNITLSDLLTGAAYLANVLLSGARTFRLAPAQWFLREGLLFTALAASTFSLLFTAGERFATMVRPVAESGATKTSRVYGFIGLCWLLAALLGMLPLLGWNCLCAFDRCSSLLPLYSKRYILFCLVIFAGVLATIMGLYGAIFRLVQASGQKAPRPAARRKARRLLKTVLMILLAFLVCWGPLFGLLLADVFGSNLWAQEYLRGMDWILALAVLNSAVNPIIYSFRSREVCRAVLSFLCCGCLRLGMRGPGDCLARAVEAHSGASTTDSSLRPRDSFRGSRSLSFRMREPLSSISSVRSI
Nature of the test: S1P receptor calcium mobilization assay, antagonist format. The format is cell-based. To be noted: recombinant CHEM cells expressing human S1P4; calcium flux, FLIPR; stimulated with EC80 of reference agonist. Here is the method:
(§1) Compounds that are not specific for a particular S1P receptor can cause undesirable side effects. Accordingly, compounds are tested to identify those that are specific. Accordingly, the test compounds are tested in a calcium mobilization assay/S1P receptor activity assay. The procedure is essentially as described in Davis et al. (2005) Journal of Biological Chemistry, vol. 280, pp. 9833-9841, which is incorporated by reference in its entirety with the following modifications. Calcium mobilization assays are performed in recombinant CHEM cells expressing human S1P1, S1P2, S1P3, S1P4, or S1P5 purchased from Millipore (Billerica, Mass.). To detect free intracellular calcium, S1P1, S1P2, S1P3, S1P4, or S1P5 cells are loaded with FLIPR Calcium 4 dye from Molecular Devices (Sunnyvale, Calif.). Cells are imaged for calcium mobilization using a FLIPR^TERA equipped with a 96-well dispense head.
Agonist percentage activation determinations were obtained by assaying sample compounds and referencing the Emax control for each receptor profiled. Antagonist percentage inhibition determinations were obtained by assaying sample compounds and referencing the control EC80 wells for each receptor profiled.
Sample compounds were plated in an eight-point, four-fold dilution series in duplicate with a top concentration of 10 μM. The concentrations described here reflect the final concentration of the compounds during the antagonist assay. During the agonist assay the compound concentrations were 1.25 fold higher to allow for the final desired concentration to be achieved with further dilution by EC80 of reference agonists during the antagonist assay.
Reference agonists were handled as mentioned above serving as assay control. The reference agonists were handled as described above for Emax.
Assay was read for 180 seconds using the FLIPR^TETRA (This assay run added sample compounds and reference agonist to respective wells). At the completion of the first “Single Addition” assay run, assay plate was removed from the FLIPR^TETRA and placed at 25° C. for seven (7) minutes.
Using the EC80 values determined during the agonist assay, stimulated all pre-incubated sample compound and reference antagonist (if applicable) wells with EC80 of reference agonist. Read for 180 seconds using the FLIPR^TETRA (This assay added reference agonist to respective wells-then fluorescence measurements were collected to calculate percentage inhibition values).
A general note: A change in cytosolic calcium serves as a functional read-out for many receptors and channels.

Test [2] deals with T1, human S1P4. Put plainly: S1P receptor calcium mobilization assay, agonist format. The format is cell-based. The note with it: recombinant CHEM cells expressing human S1P4, calcium flux, FLIPR. Here is the method:
as §1
Agonist percentage activation determinations were obtained by assaying sample compounds and referencing the Emax control for each receptor profiled. Antagonist percentage inhibition determinations were obtained by assaying sample compounds and referencing the control EC80 wells for each receptor profiled. […]
Assay was read for 180 seconds using the FLIPR^TETRA (This assay run added sample compounds and reference agonist to respective wells). […]

A further test deals with T2, Human ATX protein (Homo sapiens, UniProt Q13822).
T2 construct: made in house
Put plainly: ATX biochemical FRET assay with FS-3 substrate. The note with it: FS-3 2 μM, ATX 1.0 μg/mL, room temperature 2 hours, fluorescence 485/538 nm. A digest of the protocol:
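Purified human ATX (1.0 μg/mL final) preincubated with compound 30 min at room temperature in Tris pH 7.4 buffer with NaCl, KCl, CaCl2, MgCl2 and 1 mg/mL fatty acid-free BSA. FS-3 added to 2 μM final; 2 h at room temperature in the dark, fluorescence at ex 485/em 538 nm.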

The term IC50 denotes the concentration that gives 50% inhibition.

`CC(C)[C@H]1CC[C@H](Oc2ccc3cc(CNC45CCC(C(=O)O)(CC4)CC5)ccc3c2)CC1` [Example 4, 4-(((6-((trans-4-isopropylcyclohexyl)oxy)naphthalen-2-yl)methyl)amino)bicyclo[2.2.2]octane-1-carboxylic acid]: on human S1P4 [1], the half-inhibitory concentration (IC50) was at most 250 nM. Still for that read-out and setting: under `O=C(O)C12CCC(NCc3ccc4cc(OC5CCC6(CCCCC6)CC5)ccc4c3)(CC1)CC2` [Example 11, 4-(((6-(spiro[5.5]undecan-3-yloxy)naphthalen-2-yl)methyl)amino)bicyclo[2.2.2]octane-1-carboxylic acid] stands at most 250 nM. The same measure, in the same setting: in the case of `CC(C)(C)[C@H]1CC[C@H](Oc2ccc3cc(CN4CCN(c5ncccn5)CC4)ccc3c2)CC1` [Example 44, 2-(4-((6-((trans-4-(tert-butyl)cyclohexyl)oxy)naphthalen-2-yl)methyl)piperazin-1-yl)pyrimidine] it was at most 500 nM. For the molecule `CC(C)(C)[C@H]1CC[C@H](Oc2ccc3cc(CN4CCN(c5ccncc5)CC4)ccc3c2)CC1` [Example 46, 1-((6-((trans-4-(tert-butyl)cyclohexyl)oxy)naphthalen-2-yl)methyl)-4-(pyridin-4-yl)piperazine], the concentration for half-maximal inhibition (IC50) on human S1P4 [1] was at most 500 nM.

With `CC(C)(C)[C@H]1CC[C@H](Oc2ccc3cc(CN4CC(C5CCCC(C(=O)O)C5)C4)ccc3c2)CC1` (stereo partly drawn) [Example 58, 3-(1-((6-((trans-4-(tert-butyl)cyclohexyl)oxy)naphthalen-2-yl)methyl)azetidin-3-yl)cyclohexanecarboxylic acid], at human S1P4 [1], the IC50 was at most 100 nM. Regarding `CC1(C)CCC(Oc2ccc3cc(CN4CC(C5CCCC(C(=O)O)C5)C4)ccc3c2)CC1` (stereo not shown) [Example 62, 3-(1-((6-((4,4-dimethylcyclohexyl)oxy)naphthalen-2-yl)methyl)azetidin-3-yl)cyclohexanecarboxylic acid], the IC50 on human S1P4 [2] was at most 500 nM.

Regarding `CC(C)(C)[C@H]1CC[C@H](Oc2ccc3cc(CN4CC5(COC5)C4)ccc3c2)CC1` [Example 67, 6-((6-((trans-4-(tert-butyl)cyclohexyl)oxy)naphthalen-2-yl)methyl)-2-oxa-6-azaspiro[3.3]heptane], on human S1P4 [1], the 50% inhibitory concentration (IC50) is at most 500 nM. Regarding `CC(C)(C)[C@H]1CC[C@H](Oc2ccc3cc(CN4CC5CC(C4)C5C(=O)O)ccc3c2)CC1` (stereo partly drawn) [Example 74, 3-((6-((trans-4-(tert-butyl)cyclohexyl)oxy)naphthalen-2-yl)methyl)-3-azabicyclo[3.1.1]heptane-6-carboxylic acid], the IC50 at human S1P4 [1] is at most 100 nM. On the same count and under the same terms, under `CC(C)(C)[C@H]1CC[C@H](Oc2ccc3cc(CNC45CCC(C(=O)O)(CC4)C(O)C5)ccc3c2)CC1` (stereo partly drawn) [Example 80, 4-((6-(trans-4-tert-Butylcyclohexyloxy)naphthalen-2-yl)methylamino)-2-hydroxybicyclo[2.2.2]octane-1-carboxylic acid] stands at most 250 nM. With `C[C@H]1CC[C@@H](Oc2ccc3cc(CN4C5CCCC4CC(C(=O)O)C5)ncc3c2Br)CC1` (stereo partly drawn) [Example 279, 9-((8-bromo-7-((cis-4-methylcyclohexyl)oxy)isoquinolin-3-yl)methyl)-9-azabicyclo[3.3.1]nonane-3-carboxylic acid], the IC50 at Human ATX protein is at most 500 nM. The same measure, in the same setting: in the case of `CC[C@H]1CC[C@@H](Oc2ccc3nc(NC4C5CCC4CC(C(=O)O)C5)ccc3c2C(F)(F)F)CC1` (stereo partly drawn) [Example 280, 8-((6-((cis-4-ethylcyclohexyl)oxy)-5-(trifluoromethyl)quinolin-2-yl)amino)bicyclo[3.2.1]octane-3-carboxylic acid] it was at most 100 nM; in that of `CC[C@H]1CC[C@@H](Oc2ccc3nc(NC4C5CCCC4CC(C(=O)O)C5)ccc3c2Cl)CC1` (stereo partly drawn) [Example 281, 9-((5-chloro-6-((cis-4-ethylcyclohexyl)oxy)quinolin-2-yl)amino)bicyclo[3.3.1]nonane-3-carboxylic acid], at most 100 nM. In the case of `O=C(O)C1CC2CC(C(=O)O)CC(C1)N2Cc1ccc2c(C(F)(F)F)c(O[C@H]3CC[C@@H](C(F)(F)F)CC3)ccc2c1` (stereo partly drawn) [Example 282, (1R,3S,5S)-9-((5-(trifluoromethyl)-6-((cis-4-(trifluoromethyl)cyclohexyl)oxy)naphthalen-2-yl)methyl)-9-azabicyclo[3.3.1]nonane-3,7-dicarboxylic acid], on Human ATX protein, the IC50 is at most 100 nM. `O=C(O)C12CC3CC(C1)N(Cc1ccc4c(C(F)(F)F)c(O[C@H]5CC[C@@H](C(F)(F)F)CC5)ccc4c1)C(C3)C2` [Example 283, 9-(1R,3S,5S,7S)-2-((5-(trifluoromethyl)-6-((cis-4-(trifluoromethyl)cyclohexyl)oxy)naphthalen-2-yl)methyl)-2-azaadamantane-5-carboxylic acid] had an IC50 against Human ATX protein of at most 100 nM. On the same count and under the same terms, under `NC1CC2CC(C(=O)O)CC(C1)N2Cc1ccc2c(C(F)(F)F)c(O[C@H]3CC[C@@H](C(F)(F)F)CC3)ccc2c1` (stereo partly drawn) [Example 284, 9-(1R,3R,5S)-7-amino-9-((5-(trifluoromethyl)-6-((cis-4-(trifluoromethyl)cyclohexyl)oxy)naphthalen-2-yl)methyl)-9-azabicyclo[3.3.1]nonane-3-carboxylic acid] stands at most 250 nM; under `CCC1CCC(Oc2ccc3cc(C(CC)N4C5CCCC4CC(C(=O)O)C5)ccc3c2C(F)(F)F)CC1` [Example 297, 9-((R)-1-(6-(((1s,4S)-4-ethylcyclohexyl)oxy)-5-(trifluoromethyl)naphthalen-2-yl)propyl)-9-azabicyclo[3.3.1]nonane-3-carboxylic acid], at most 250 nM.

For the origin of these results see patent US9944666B2, “Compounds that are S1P modulating agents and/or ATX modulating agents” (BIOGEN MA INC., priority 2012, dated 2018).
